Laboratory results taken from patent publication US20250115654A1, “PHARMACEUTICAL COMPOSITION OF GLP-1 RECEPTOR AND GIP RECEPTOR DUAL AGONIST, AND USE THEREOF” (FUJIAN SHENGDI PHARMACEUTICAL CO., LTD., priority 2021, published 2025).
Like-named read-outs stand apart in the source and are kept apart here. Numbered stars: 1 amine (or outer) side, 2 acyl side, 3 side chain; on linkers, the order of the positions; unused ones are H or OH. Square brackets hold non-standard residues; d marks the D form. Side chains are listed from the residue outwards. Peptide text beside a SMILES is read from it. * marks the point of attachment. C20 diacid = O=C(O)CCCCCCCCCCCCCCCCCCC(=O)*; γGlu = O=C(O)[C@H](CCC(=O)[*:2])N[*:1]; AEEA = NCCOCCOCC(=O)O; Aib = CC(C)(N)C(=O)O

Legend:
human GLP-1R = human GLP-1R (Homo sapiens, UniProt P43220); assay: Agonist activity against GLP-1R, cAMP HTRF in CHO-K1/GLP-1R/CRE-luc stable cells
human GIPR = target: T1, human GIPR (Homo sapiens, UniProt P48546); assay: Agonist activity against GIPR, cAMP HTRF in CHO-K1 cells transiently transfected with hGIP receptor; type: cell-based
T1 construct: expressed in transfected cells; host or cells: wild-type CHO-K1, transient transfection with hGIP receptor plasmid (Fugene HD)
T1 sequence (P48546 22-466): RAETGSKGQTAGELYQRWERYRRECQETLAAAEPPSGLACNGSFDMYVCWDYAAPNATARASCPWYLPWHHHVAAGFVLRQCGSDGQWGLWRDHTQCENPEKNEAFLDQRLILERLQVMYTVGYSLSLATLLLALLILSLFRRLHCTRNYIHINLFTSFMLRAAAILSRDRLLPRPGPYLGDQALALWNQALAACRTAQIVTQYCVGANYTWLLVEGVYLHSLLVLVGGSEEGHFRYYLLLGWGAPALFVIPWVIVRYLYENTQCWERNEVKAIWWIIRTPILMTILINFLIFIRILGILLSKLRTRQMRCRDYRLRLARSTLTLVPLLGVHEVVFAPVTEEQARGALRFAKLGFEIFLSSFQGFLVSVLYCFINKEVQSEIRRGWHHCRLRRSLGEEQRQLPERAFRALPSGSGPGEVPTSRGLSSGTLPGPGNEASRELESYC
Protocol: Wild-type CHO-K1 cells were collected, and the cell suspension was adjusted to an appropriate density, seeded in a 6-well plate at 2 mL/well, and placed in an incubator at 37° C. with 5% CO2 for adherence culture overnight.

[1] = target: T2, human glucose-dependent insulinotropic polypeptide receptor (GIPR) (human) (UniProt P48546)
T2 sequence: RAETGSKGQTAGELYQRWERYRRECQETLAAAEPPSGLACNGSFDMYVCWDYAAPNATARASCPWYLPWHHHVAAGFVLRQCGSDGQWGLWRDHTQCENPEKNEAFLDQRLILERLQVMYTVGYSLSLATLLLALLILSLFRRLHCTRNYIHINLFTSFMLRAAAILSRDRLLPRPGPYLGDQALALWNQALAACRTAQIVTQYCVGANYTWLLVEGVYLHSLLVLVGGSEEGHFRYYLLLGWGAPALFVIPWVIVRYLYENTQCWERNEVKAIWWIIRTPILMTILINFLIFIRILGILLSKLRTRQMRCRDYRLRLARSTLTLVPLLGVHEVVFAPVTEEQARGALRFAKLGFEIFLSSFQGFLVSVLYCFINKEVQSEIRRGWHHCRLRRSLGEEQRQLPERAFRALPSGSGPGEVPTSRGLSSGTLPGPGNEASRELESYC

[2] = Stability of compounds in human plasma (LC-MS); type: in vitro ADME
Protocol: 5 μL of each of samples at concentrations of 20 ng/mL, 50 ng/mL, 100 ng/mL, 200 ng/mL, 500 ng/mL, 1000 ng/mL, 2000 ng/mL, 5000 ng/mL, and 10000 ng/mL was added to 45 L of human plasma. The content of the compounds in the samples was determined by the LC-MS method and a standard curve was formed. 5 μL of a 1 mg/mL polypeptide solution was added to 45 μL of human plasma. […] With the content at 0 min as the standard (100%), the relative content of the retained compounds in the samples at other time points was calculated.

[3] = Pharmacokinetics in Balb/c mice after a single intravenous injection; type: in vivo; conditions: male, mouse, mice plasma, 30 nmol/kg
Protocol: (§1) Male Balb/c mice weighing 18-30 g and aged 7-9 weeks were purchased from Shanghai Jiesijie Laboratory Animal Co., Ltd. After compound 7 #was prepared in a buffer containing 20 mM citric acid (pH=7.0), compound 7 #was intravenous injected into mice at a dose of 30 nmol/kg body weight via tail vein, and 0.2 mL of blood was separately collected at time points of 0 h, 0.083 h, 0.25 h, 0.5 h, 1 h, 2 h, 4 h, 6 h, 8 h, 24 h, and 32 h. The collected blood of mice was centrifuged at 6000 rpm for 6 min at 4° C. to separate the plasma. The content of compound 7 #in plasma of mice was assayed by the experimental procedures of Example 3.3.

normal mice = assay: Blood glucose in normal mice after a single subcutaneous administration and intraperitoneal glucose; type: in vivo, C57BL/6 mice; conditions: 10 nmol/kg sc; for Blood glucose (mmol/L, mean ± SD): glucose ip 18 h later
Protocol: 18 h later, a glucose solution at a concentration of 0.2 g/mL was intraperitoneally injected. Blood glucose values were measured by collecting blood from the tail of mice at time points of 0 min, 15 min, 30 min, 60 min, and 120 min according to the experimental design. The specific procedures were as follows: the mouse was physically immobilized with the tail exposed, a little part was cut off at the tail end, then the tail was squeezed to bleed, and blood glucose was determined using a Roche active glucometer after the 1st drop of blood was discarded. The area under the blood glucose curve (AUC) was calculated from the results of all time points.

[4] = Pharmacokinetics in Balb/c mice after a single subcutaneous injection; type: in vivo; conditions: male, mouse, sc, mice plasma, 30 nmol/kg
Protocol: as §1, with “subcutaneously” for “intravenous”, “left side of abdomen,” for “tail vein,”, “5.2.” for “3.3.”

[5] = test system: diet-induced-obesity mice; assay: Body weight of diet-induced-obesity mice, subcutaneous administration once every 3 days; type: in vivo, C57BL/6 mice; conditions: for Body weight change (%, mean ± SD): 10 nmol/kg
[6] = target: human glucagon-like peptide-1 receptor (GLP-1R) (human, UniProt P43220); assay: cell-based or functional assay
[7] = target: T3, human glucose-dependent insulinotropic polypeptide receptor (GIPR) (human, UniProt P48546); assay: cell-based or functional assay
T3 sequence: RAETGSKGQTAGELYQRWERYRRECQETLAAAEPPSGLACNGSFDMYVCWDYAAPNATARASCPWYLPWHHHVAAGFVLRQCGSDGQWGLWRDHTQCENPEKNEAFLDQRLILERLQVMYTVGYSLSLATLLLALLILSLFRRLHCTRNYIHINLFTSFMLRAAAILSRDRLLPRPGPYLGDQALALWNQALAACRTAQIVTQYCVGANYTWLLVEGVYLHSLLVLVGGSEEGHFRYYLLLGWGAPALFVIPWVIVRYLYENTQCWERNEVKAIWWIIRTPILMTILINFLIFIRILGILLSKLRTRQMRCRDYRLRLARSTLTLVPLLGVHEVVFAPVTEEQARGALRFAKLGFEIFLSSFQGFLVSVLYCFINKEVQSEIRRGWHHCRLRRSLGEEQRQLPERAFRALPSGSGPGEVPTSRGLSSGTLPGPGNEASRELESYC

human GLP-1R, sequence (P43220 24-463): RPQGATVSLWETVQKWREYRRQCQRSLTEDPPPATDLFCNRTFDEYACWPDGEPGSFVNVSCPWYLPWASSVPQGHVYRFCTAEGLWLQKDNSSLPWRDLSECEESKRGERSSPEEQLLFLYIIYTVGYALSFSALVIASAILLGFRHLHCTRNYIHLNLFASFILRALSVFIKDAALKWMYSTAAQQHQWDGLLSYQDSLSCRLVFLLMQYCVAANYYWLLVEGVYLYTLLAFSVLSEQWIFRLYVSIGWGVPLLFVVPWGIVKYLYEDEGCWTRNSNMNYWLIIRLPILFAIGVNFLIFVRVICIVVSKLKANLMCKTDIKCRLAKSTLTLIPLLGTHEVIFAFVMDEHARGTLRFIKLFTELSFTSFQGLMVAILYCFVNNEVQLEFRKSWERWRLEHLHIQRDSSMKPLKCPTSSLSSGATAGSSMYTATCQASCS

`CC[C@H](C)[C@H](NC(=O)[C@H](CCCCN)NC(=O)[C@H](CCC(=O)O)NC(=O)[C@H](CCCCNC(=O)COCCOCCNC(=O)COCCOCCNC(=O)CC[C@H](NC(=O)CCCCCCCCCCCCCCCCCCC(=O)O)C(=O)O)NC(=O)[C@H](Cc1ccc(O)cc1)NC(=O)[C@@H](NC(=O)[C@H](CO)NC(=O)[C@H](Cc1ccc(O)cc1)NC(=O)[C@H](CC(=O)O)NC(=O)[C@H](CO)NC(=O)[C@@H](NC(=O)[C@H](Cc1ccccc1)NC(=O)[C@@H](NC(=O)CNC(=O)[C@H](CCC(=O)O)NC(=O)C(C)(C)NC(=O)[C@@H](N)Cc1ccc(O)cc1)[C@@H](C)O)[C@@H](C)O)[C@@H](C)CC)C(=O)N[C@@H](C)C(=O)N[C@@H](C)C(=O)N[C@@H](CCC(N)=O)C(=O)N[C@@H](CCC(=O)O)C(=O)N[C@@H](Cc1ccccc1)C(=O)N[C@H](C(=O)N[C@@H](CC(N)=O)C(=O)N[C@@H](Cc1c[nH]c2ccccc12)C(=O)N[C@@H](CC(C)C)C(=O)N[C@H](C(=O)N[C@@H](C)C(=O)NCC(=O)NCC(=O)N1CCC[C@H]1C(=O)N[C@@H](CO)C(=O)N[C@@H](CO)C(=O)NCC(=O)N[C@@H](C)C(=O)N1CCC[C@H]1C(=O)N1CCC[C@H]1C(=O)N1CCC[C@H]1C(=O)N[C@@H](CO)C(N)=O)[C@@H](C)CC)[C@@H](C)CC` [Compound 14] (H-Y[Aib]EGTFTSDYSIYK([AEEA-AEEA-γGlu-C20 diacid])EKIAAQEFINWLIAGGPSSGAPPPS-NH2) showed an EC50 (human GLP-1R) of 0.013 nM and an EC50 (human GIPR; Table 6 run, read-out: Activity against human GIPR (EC50 nM)) of 0.13 nM.

In the case of LY3298176 (peptide), the Activity against human GIPR (EC50 nM); cAMP, HTRF [1] is reported as 0.031 nM.

In the case of `CC[C@H](C)[C@H](NC(=O)[C@H](CCCCN)NC(=O)[C@H](CC(=O)O)NC(=O)[C@H](CCCCNC(=O)COCCOCCNC(=O)COCCOCCNC(=O)CC[C@H](NC(=O)CCCCCCCCCCCCCCCCCCC(=O)O)C(=O)O)NC(=O)[C@H](Cc1ccc(O)cc1)NC(=O)[C@@H](NC(=O)[C@H](CO)NC(=O)[C@H](Cc1ccc(O)cc1)NC(=O)[C@H](CC(=O)O)NC(=O)[C@H](CO)NC(=O)[C@@H](NC(=O)[C@H](Cc1ccccc1)NC(=O)[C@@H](NC(=O)CNC(=O)[C@H](CCC(=O)O)NC(=O)C(C)(C)NC(=O)[C@@H](N)Cc1ccc(O)cc1)[C@@H](C)O)[C@@H](C)O)[C@@H](C)CC)C(=O)N[C@@H](C)C(=O)N[C@@H](C)C(=O)N[C@@H](CCC(N)=O)C(=O)N[C@@H](CCC(=O)O)C(=O)N[C@@H](Cc1ccccc1)C(=O)N[C@H](C(=O)N[C@@H](CC(N)=O)C(=O)N[C@@H](Cc1c[nH]c2ccccc12)C(=O)N[C@@H](CC(C)C)C(=O)N[C@@H](CC(C)C)C(=O)N[C@@H](C)C(=O)NCC(=O)NCC(=O)N1CCC[C@H]1C(=O)N[C@@H](CO)C(=O)N[C@@H](CO)C(=O)NCC(=O)N[C@@H](C)C(=O)N1CCC[C@H]1C(=O)N1CCC[C@H]1C(=O)N1CCC[C@H]1C(=O)N[C@@H](CO)C(N)=O)C(C)C` [Compound 7#] (H-Y[Aib]EGTFTSDYSIYK([AEEA-AEEA-γGlu-C20 diacid])DKIAAQEFVNWLLAGGPSSGAPPPS-NH2), the “Relative content of compounds retained in plasma (%)” value ([2]; 0 min (standard 100%)) is reported as 100.00%, the remaining at 0.5 h, 0.1 mg/mL ([2]; human, 30 min, read-out: Relative content of compounds retained in plasma (%)) is reported as 101% and the remaining at 1 h, 0.1 mg/mL ([2]; human, 60 min, read-out: Relative content of compounds retained in plasma (%)) is reported as 102%. It also gave a remaining at 2 h, 0.1 mg/mL ([2]; human, 120 min, read-out: Relative content of compounds retained in plasma (%)) of 103%, a remaining at 4 h, 0.1 mg/mL ([2]; human, 240 min, read-out: Relative content of compounds retained in plasma (%)) of over 90% and an AUC(0-inf) [3] of 16100 ng·h/mL. For the same molecule, the half-life [3] was 13 h, the “reduction of area under the blood glucose curve compared with placebo” value (normal mice) was “more than 60%” and the “AUC (area under the blood glucose curve)” value (normal mice; 0-120 min) was 10.7 ± 1.8 mmol·h/L. The “Blood glucose (mmol/L, mean ± SD)” value (normal mice; 0 min) was 4.4 ± 0.8 mmol/L, the “Blood glucose (mmol/L, mean ± SD)” value (normal mice; 15 min) was 6.7 ± 0.8 mmol/L and the “Blood glucose (mmol/L, mean ± SD)” value (normal mice; 30 min) was 6.2 ± 1.3 mmol/L. For the same molecule, the “Blood glucose (mmol/L, mean ± SD)” value (normal mice; 60 min) was 5.7 ± 1.2 mmol/L, the “Blood glucose (mmol/L, mean ± SD)” value (normal mice; 120 min) was 3.8 ± 1.1 mmol/L and the AUC(0-inf) [4] was 14500 ng·h/mL. For the same molecule, the half-life [4] was 10.1 h, the EC50 (human GIPR) was 0.11 nM and the “Body weight change (%, mean ± SD)” value ([5]; Day 1) was 0%. For the same molecule, the “Body weight change (%, mean ± SD)” value ([5]; Day 4) was −11.0 ± 1.0%, the “Body weight change (%, mean ± SD)” value ([5]; Day 7) was −17.6 ± 2.6% and the “Body weight change (%, mean ± SD)” value ([5]; Day 10) was −22.6 ± 5.9%. The “Body weight change (%, mean ± SD)” value ([5]; Day 13) was −22.3 ± 6.3%, the “Body weight change (%, mean ± SD)” value ([5]; Day 16) was −22.7 ± 6.9% and the “Body weight change (%, mean ± SD)” value ([5]; Day 19) was −25.9 ± 6.2%. For the same molecule, the “Body weight change (%, mean ± SD)” value ([5]; Day 22) was −23.9 ± 5.6%, the “Body weight change (%, mean ± SD)” value ([5]; Day 25) was −23.9 ± 5.6% and the “Body weight change (%, mean ± SD)” value ([5]; Day 28) was −25.5 ± 5.3%. For the same molecule, the “body weight-reducing effect on high-fat food-induced-obesity mice” value ([5]; doses of 3, 10 and 100 nmol/kg) was “significant body weight-reducing effect”.

With H-Y[Aib]EGTFTSDYSIYK([AEEA-AEEA-γGlu-C20‑OH])DKIAAQEFVNWLLAGGPSSGAPPPS-NH2 [compound 7# H-YAibEGTFTSDYSIYK(OEG-OEG-yGlu-C20-OH)DKIAAQEFVNWLLAGGPSSGAPPPS-NH2] the “Activity against human GLP-1R (EC50 nM); cAMP, HTRF” value [6] was 0.021 nM and the “Activity against human GIPR (EC50 nM); cAMP, HTRF” value [7] was 0.11 nM.
